Results on 45 compounds are retold here after patent US4725591A, “β-lactamase inhibitory composition” (Takeda Chemical Industries, Ltd., priority 1980, dated 1988).

For the first experiment, the target named is T1, β-lactamase produced by Enterobacter cloacae IFO 12937 (Enterobacter cloacae, UniProt P05364).
T1 construct: The β-lactamase produced by Enterobacter cloacae IFO 12937; endogenous in cells; host or cells: Enterobacter cloacae IFO 12937
T1 sequence (P05364 21-381): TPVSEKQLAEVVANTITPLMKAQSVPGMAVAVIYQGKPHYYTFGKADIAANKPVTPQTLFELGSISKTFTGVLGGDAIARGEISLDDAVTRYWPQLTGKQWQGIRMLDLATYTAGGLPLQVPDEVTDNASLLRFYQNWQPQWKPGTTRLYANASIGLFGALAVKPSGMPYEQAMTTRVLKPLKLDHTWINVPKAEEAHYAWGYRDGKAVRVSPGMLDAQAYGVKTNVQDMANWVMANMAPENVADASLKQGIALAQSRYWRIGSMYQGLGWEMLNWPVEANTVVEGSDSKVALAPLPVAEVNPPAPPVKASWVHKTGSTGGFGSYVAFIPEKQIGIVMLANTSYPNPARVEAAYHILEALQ
Briefly: Inhibitor concentration required to inhibit β-lactamase (cephalosporinase) activity by 50%, micro-iodometric method. Format: biochemical. To be noted: Enterobacter cloacae IFO 12937 cephalosporinase; 0.05M phosphate buffer pH 7, 30° C., 10 minutes preincubation; cephalothin or ampicillin 0.1 mM; read-out: I50 (converted). Here is the method:
(§1) Determination of the inhibitor concentration required to inhibit the enzyme activity by 50%
(§2) The β-lactamase produced by Enterobacter cloacae IFO 12937 is used as a typical example of cephalosporinase, and that produced by Staphylococcus aureus 1840 as typical example of penicillinase. The β-lactamase in incubated is 0.05M phosphate buffer (pH 7) with an appropriate dilution of an inhibitor preparation at 30° C. for 10 minutes. Cephalothin or ampicillin is then added in an amount sufficient to produce a final concentration of 0.1 mM, and the enzymatic reaction is allowed to proceed for 10 minutes. The enzyme activity is determined by the micro-iodometric method [Journal of general Microbiology, vol. 33, page 121 (1963)]. Hereinafter, the inhibitor concentration required to inhibit the enzyme activity by 50% is expressed as I50. The I50 values for Enterobacter cloaceae are shown in Table 1, and the I50 values for Staphylococcus aureus in Table 2.
Take `COC1(NC(=O)[C@H](NC(=O)N2CCN(C(C)(C)C)C(=O)C2=O)c2cccs2)CN(S(=O)(=O)O)C1=O` (stereo partly drawn) [Compound 40, Sodium 3-[D-2-(4-t-butyl-2,3-dioxo-1-piperadinecarboxamido)-2-thienylacetamido]-3-methoxy-2-oxoazetidine-1-sulfonate]: the IC50 is 124 nM.

On to `CC(C)ON=C(C(=O)NC1CN(S(=O)(=O)O)C1=O)c1csc(N)n1` (stereo not shown), for which the IC50 is 50.1 nM.

In the case of `O=C(NC1CN(S(=O)(=O)O)C1=O)C(c1cccs1)N1C(=O)c2ccccc2C1=O` (stereo not shown) [Compound 34, Sodium 3-(2-phthalimido-2-thienylacetamido)-2-oxoazetidine-1-sulfonate], the IC50 is 873 nM.

On to `COC1(NC(=O)C(C(=O)OCc2ccccc2)c2ccccc2)CN(S(=O)(=O)O)C1=O` (stereo not shown) [Compound 4], for which the IC50 was 89.2 nM.

For `COC1(NC(=O)[C@H](NC(=O)N2CCN(c3ccccc3)C(=O)C2=O)c2cccs2)CN(S(=O)(=O)O)C1=O` (stereo partly drawn) [Compound 39, Sodium 3-methoxy-3-[D-2-(4-phenyl-2,3-dioxo-1-piperadinecarboxamido)-2-thienylacetamido]-2-oxoazetidine-1-sulfonate], the IC50 was 127 nM.

For the compound `CCCCCCCCN1CCN(C(=O)N[C@@H](C(=O)NC2CN(S(=O)(=O)O)C2=O)c2cccs2)C(=O)C1=O` (stereo partly drawn) [Compound 1, Sodium 3-[D-2-(4-n-octyl-2,3-dioxo-1-piperazinecarboxamido)-2-thienylacetamido]-2-oxoazetidine-1-sulfoante], the IC50 was 5020 nM.

Take `CON=C(C(=O)NC1(OC)CN(S(=O)(=O)O)C1=O)c1csc(N)n1` (stereo not shown) [Compound 13]: the IC50 is 712 nM.

With `CCN1CCN(C(=O)NC(C(=O)NC2(OC)CN(S(=O)(=O)O)C2=O)c2ccccc2)C(=O)C1=O` (stereo not shown) [Compound 11], the IC50 is 523 nM.

Regarding `COC1(NC(=O)C(=NOC(C)C)c2csc(N)n2)CN(S(=O)(=O)O)C1=O` (stereo not shown) [Compound 36, Sodium 3-[2-(2-aminothiazol-4-yl)-2-(1-methylethoxyimino)actamido]-3-methoxy-2-oxoazetidine-1-sulfonate], the IC50 is 56.5 nM.

`CCN1CCN(C(=O)N[C@H](Cc2ccccc2)C(=O)NC2(OC)CN(S(=O)(=O)O)C2=O)C(=O)C1=O` (stereo partly shown) [Compound 7]: the IC50 is 2150 nM.

Regarding `CON=C(C(=O)NC1(OC)CN(S(=O)(=O)O)C1=O)c1csc(NC(=O)CCl)n1` (stereo not shown) [Compound 14], the IC50 is 658 nM.

`Cc1onc(-c2c(Cl)cccc2Cl)c1C(=O)N[C@@H](C(=O)NC1CN(S(=O)(=O)O)C1=O)c1cccs1` (stereo partly drawn) [Compound 25, Sodium 3-[D-2-[[3-(2,6-dichlorophenyl)-5-methylisoxazol-4-yl]-carboxamido]-2-thienylacetamido]-2-oxoazetidine-1-suflonate]: the IC50 was 6440 nM.

Consider `CCN1CCN(C(=O)NC(C(=O)NC2CN(S(=O)(=O)O)C2=O)C2=CCCCC2)C(=O)C1=O` (stereo not shown) [Compound 10], for which the IC50 was 4880 nM.

As to `COc1cccc(OC)c1C(=O)NC1CN(S(=O)(=O)O)C1=O` (stereo not shown), the IC50 was 7100 nM.

As for `COC1(NC(=O)C(C)NC(=O)C(CS(=O)(=O)NS(=O)(=O)O)NC(=O)OCc2ccccc2)CN(S(=O)(=O)O)C1=O` (stereo not shown) [Compound 24], the IC50 was 1200 nM.

As for `Cc1ccc(SN=C(C(=O)NC2CN(S(=O)(=O)O)C2=O)c2ccccc2)cc1` (stereo not shown), the IC50 is 1250 nM.

As for `CNC(=O)CC(NC(=O)OCc1ccccc1)C(=O)NC1(OC)CN(S(=O)(=O)O)C1=O` (stereo not shown) [Compound 6], the IC50 is 2400 nM.

Regarding `CON=C(C(=O)NC1CN(S(=O)(=O)O)C1=O)c1nc(N)sc1Cl` (stereo not shown), the IC50 was 2960 nM.

With `COC1(NC(=O)[C@@H](C)NC(=O)OCc2ccccc2)CN(S(=O)(=O)O)C1=O` (stereo partly shown) [Compound 8], the IC50 is 7970 nM.

Regarding `COc1cccc(OC)c1C(=O)NC1(OC)CN(S(=O)(=O)O)C1=O` (stereo not shown) [Compound 18], the IC50 is 5000 nM.

Take `COC1(NC(=O)[C@H](NC(=O)N2CCN(CC(=O)N3CCCCC3)C(=O)C2=O)c2cccs2)CN(S(=O)(=O)O)C1=O` (stereo partly drawn) [Compound 38, Sodium 3-methoxy-3-[D-2-(4-piperidinecarbonylmethyl-2,3-dioxo-1-piperadinecarboxamido)-2-thienylacetamido]-2-oxoazetidine-1-sulfonate]: the IC50 was 130 nM.

Regarding `COC1(NC(=O)[C@H](NC(=O)N2CCN(C3CCCCC3)C(=O)C2=O)c2cccs2)CN(S(=O)(=O)O)C1=O` (stereo partly drawn) [Compound 37, Sodium 3-[D-2-(4-cyclohexyl-2,3-dioxo-1-pipeadinecarboxamido)-2-thienylacetamido]-3-methoxy-2-oxoazetidine-1-sulfonate], the IC50 is 215 nM.

Take `CCCCCCCCN1CCN(C(=O)NC(C(=O)NC2(OC)CN(S(=O)(=O)O)C2=O)c2cccs2)C(=O)C1=O` (stereo not shown) [Compound 2]: the IC50 is 78.3 nM.

In the case of `O=C(NC1CN(S(=O)(=O)O)C1=O)C(OS(=O)(=O)O)c1ccccc1` (stereo not shown) [Compound 15], the IC50 was 9460 nM.

With `CC(C)(ON=C(C(=O)NC1CN(S(=O)(=O)O)C1=O)c1csc(NC(c2ccccc2)(c2ccccc2)c2ccccc2)n1)C(=O)O` (stereo not shown) [Compound 43, Disodium 3-[2-[(1-carboxy-1-methylethoxy)imino]-2-(2-tritylaminothiazol-4-yl)acetamido]-2-oxoazetidine-1-sulfonate], the IC50 is 4820 nM.

For `CON=C(C(=O)NC1CN(S(=O)(=O)O)C1=O)c1nc(NC(=O)CCl)sc1Cl` (stereo not shown), the IC50 is 622 nM.

With `COC1(NC(=O)[C@H](NC(=O)N2CCN(CC=C(C)C)C(=O)C2=O)c2cccs2)CN(S(=O)(=O)O)C1=O` (stereo partly drawn) [Compound 41, Sodium 3-[D-2-[4-(3-methyl-2-butenyl)-2,3-dioxo-1-piperadinecarboxamido]-2-thienylacetamido]-3-methoxy-2-oxoazetidine-1-sulfonate], the IC50 is 120 nM.

On to `COC1(NC(=O)C(C(=O)O)c2ccccc2)CN(S(=O)(=O)O)C1=O` (stereo not shown) [Compound 5], for which the IC50 was 391 nM.

For `COC1(NC(=O)C(N=[N+]=[N-])c2ccccc2)CN(S(=O)(=O)O)C1=O` (stereo not shown), the IC50 was 954 nM.

`CC(C)ON=C(C(=O)NC1CN(S(=O)(=O)O)C1=O)c1csc(N)n1` (stereo not shown) [Compound 23]: the IC50 is 53 nM.

Turning to `CON=C(C(=O)NC1CN(S(=O)(=O)O)C1=O)c1ccccc1` (stereo not shown) [Compound 16], the IC50 was 15300 nM.

On to `COC1(NC(=O)OCc2ccccc2)CN(S(=O)(=O)O)C1=O` (stereo not shown) [Compound 30, Sodium 3-benzyloxycarboxamido-3-methoxy-2-oxoazetidine-1-sulfonate], for which the IC50 was 15100 nM.

Consider `COc1ccc(COC(=O)C(C(=O)NC2(OC)CN(S(=O)(=O)O)C2=O)c2ccc(O)cc2)cc1` (stereo not shown), for which the IC50 is 387 nM.

With `CCN1CCN(C(=O)NC(C(=O)NC2CN(S(=O)(=O)O)C2=O)C2=C(Cl)CCCC2)C(=O)C1=O` (stereo not shown), the IC50 is 5680 nM.

The target in another experiment is T2, β-lactamase produced by Staphylococcus aureus 1840 (Staphylococcus aureus, UniProt P00807).
T2 construct: endogenous in cells; host or cells: Staphylococcus aureus 1840
T2 sequence (P00807 25-281): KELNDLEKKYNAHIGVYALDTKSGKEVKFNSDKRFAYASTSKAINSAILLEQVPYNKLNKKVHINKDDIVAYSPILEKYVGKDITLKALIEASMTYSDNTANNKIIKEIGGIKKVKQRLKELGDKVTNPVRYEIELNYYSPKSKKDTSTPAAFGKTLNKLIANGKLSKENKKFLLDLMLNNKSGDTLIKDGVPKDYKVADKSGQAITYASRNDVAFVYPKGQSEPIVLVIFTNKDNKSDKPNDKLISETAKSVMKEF
Description: Inhibitor concentration required to inhibit β-lactamase (penicillinase) activity by 50%, micro-iodometric method. To be noted: Staphylococcus aureus 1840 penicillinase; 0.05M phosphate buffer pH 7, 30° C., 10 minutes preincubation; cephalothin or ampicillin 0.1 mM; read-out: I50 (converted). Format: biochemical. Here is the method: as §1, §2
As for `CCN1C(=O)C(=O)N(C(=O)N[C@@H](C(=O)NC2CN(S(=O)(=O)O)C2=O)c2cccs2)C[C@@H]1C` (stereo partly drawn) [Compound 44, Sodium 3-[D-2-(4-ethyl-5(S)-methyl-2,3-dioxo-2,3-dioxo-1-piperazinecarboxamido)-2-thienylacetamido]-2-oxoazetidine-1-sulfonate], the IC50 was 2460 nM.

Turning to `[N-]=[N+]=NC(C(=O)NC1CN(S(=O)(=O)O)C1=O)c1cccc(Cl)c1` (stereo not shown), the IC50 is 147 nM.

Take `Cc1onc(-c2c(Cl)cccc2Cl)c1C(=O)N[C@@H](C(=O)NC1CN(S(=O)(=O)O)C1=O)c1cccs1` (stereo partly drawn) [Compound 25, Sodium 3-[D-2-[[3-(2,6-dichlorophenyl)-5-methylisoxazol-4-yl]-carboxamido]-2-thienylacetamido]-2-oxoazetidine-1-suflonate]: the IC50 was 715 nM.

Regarding `O=C(NC1CN(S(=O)(=O)O)C1=O)[C@H](NC(=O)N1CCNC1=O)c1cccs1` (stereo partly drawn) [Compound 45, Sodium 3-[D-2-[(2-oxoimidazolidin-1-yl)carboxamido]-2-thienylacetamido]-2-oxoazetidine-1-sulfonate], the IC50 was 5750 nM.

Turning to `O=C(NC(CS(=O)(=O)NC1CN(S(=O)(=O)O)C1=O)C(=O)OCc1ccccc1)OCc1ccccc1` (stereo not shown) [Compound 48], the IC50 was 3140 nM.

Turning to `Nc1nc(CC(=O)N[C@@H](C(=O)NC2CN(S(=O)(=O)O)C2=O)c2ccccc2)cs1` (stereo partly shown) [Compound 47], the IC50 is 11400 nM.

In the case of `CCOC(=O)C(C(=O)c1ccccc1)=C1SC(C(=O)NC2CN(S(=O)(=O)O)C2=O)S1` (stereo not shown) [Compound 54], the IC50 is 2540 nM.

Consider `O=C(NC1CN(S(=O)(=O)O)C1=O)C(Br)c1ccccc1` (stereo not shown), for which the IC50 was 493 nM.

Turning to `[N-]=[N+]=NC(C(=O)NC1CN(S(=O)(=O)O)C1=O)c1ccccc1` (stereo not shown), the IC50 is 144 nM.

Regarding `O=C(NC1CN(S(=O)(=O)O)C1=O)C(=O)c1ccccc1` (stereo not shown), the IC50 was 12500 nM.

With `O=C(CSc1c(Cl)cccc1Cl)N[C@@H](C(=O)NC1CN(S(=O)(=O)O)C1=O)c1ccccc1` (stereo partly shown) [Compound 46], the IC50 is 9650 nM.

With `CS(=O)(=O)NC1CN(S(=O)(=O)O)C1=O` (stereo not shown) [Compound 52], the IC50 is 14300 nM.
